Experimental data: PMC9967275, “Screening the Pathogen Box to Discover and Characterize New Cruzain and TbrCatL Inhibitors” (Pathogens, 2023)
Read-outs that look alike come from different tables or passages of the source.

Columns and labels:
TbrCatL = molecular target: T1, TbrCatL (Trypanosoma brucei rhodesiense, UniProt Q95PM0); experiment: TbrCatL enzymatic inhibition assay (cleavage of fluorogenic substrate Z-FR-AMC); type: biochemical; settings: for TbrCatL 0’ Inhibition / TbrCatL 10’ Inhibition: sheet "Screening results";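 as to TbrCatL 0’ Inhibition: at 5 µM compound concentration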;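 as to TbrCatL 10’ Inhibition: at 5 µM compound concentration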;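 as to TbrCatL Inhibition 0’: at 5 µM compound concentration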;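 as to TbrCatL Inhibition 10’: at 5 µM compound concentration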
T1 construct: Conor Caffrey (University of California San Diego)
T1 sequence (Q95PM0 entry or part of it): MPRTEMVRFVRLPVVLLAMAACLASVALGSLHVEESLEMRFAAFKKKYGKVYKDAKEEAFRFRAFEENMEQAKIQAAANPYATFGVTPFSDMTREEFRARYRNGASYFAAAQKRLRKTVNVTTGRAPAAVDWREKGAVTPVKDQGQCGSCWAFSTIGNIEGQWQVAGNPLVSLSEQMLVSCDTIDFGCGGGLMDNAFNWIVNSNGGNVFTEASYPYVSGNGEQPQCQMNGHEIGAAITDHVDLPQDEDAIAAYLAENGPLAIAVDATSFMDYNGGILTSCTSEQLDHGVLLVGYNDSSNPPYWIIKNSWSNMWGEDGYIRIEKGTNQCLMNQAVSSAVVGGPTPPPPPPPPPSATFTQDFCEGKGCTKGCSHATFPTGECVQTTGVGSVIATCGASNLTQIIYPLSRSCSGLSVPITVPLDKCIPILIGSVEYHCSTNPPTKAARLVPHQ
In short: (§1)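 Recombinant enzymes assayed by Z-Phe-Arg-AMC cleavage at 25 °C, fluorescence 340/440 nm over 5–7 min, with 10 min or no enzyme–compound preincubation.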

cruzain = cruzain (Trypanosoma cruzi, UniProt P25779); experiment: biochemical;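 as to Cruzain 0’ Inhibition: at 5 µM compound concentration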;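 as to Cruzain 10’ Inhibition: at 5 µM compound concentration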;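 as to Cruzain Inhibition 0’: at 5 µM compound concentration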;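 as to Cruzain Inhibition 10’: at 5 µM compound concentration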
Chain of cruzain (P25779 123-337 limits assumed): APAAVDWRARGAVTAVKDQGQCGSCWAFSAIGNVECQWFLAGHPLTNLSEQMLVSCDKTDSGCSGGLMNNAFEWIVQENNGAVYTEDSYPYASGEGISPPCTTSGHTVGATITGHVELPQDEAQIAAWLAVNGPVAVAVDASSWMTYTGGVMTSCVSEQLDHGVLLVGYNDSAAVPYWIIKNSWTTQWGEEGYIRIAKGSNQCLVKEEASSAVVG
In short: as §1

[1] = 0’ (pre-incubation time), sheet "Screening results"
[2] = 10’ (pre-incubation time), sheet "Screening results"
[3] = 0’ (no pre-incubation), sheet Screening results
[4] = 10’ (pre-incubation), sheet Screening results
[5] = 0’ (pre-incubation time), Pathogen Box screening results
[6] = 10’ (pre-incubation time), Pathogen Box screening results

Structure (SMILES)	TbrCatL 0’ Inhibition (TbrCatL; 0’ (pre-incubation time)) [%]	TbrCatL 10’ Inhibition (TbrCatL; 10’ (pre-incubation time)) [%]	Cruzain 0’ Inhibition (cruzain; [1]) [%]	Cruzain 10’ Inhibition (cruzain; [2]) [%]	TbrCatL Inhibition 0’ (TbrCatL; [3]) [%]	TbrCatL Inhibition 10’ (TbrCatL; [4]) [%]	Cruzain Inhibition 0’ (cruzain; [3]) [%]	Cruzain Inhibition 10’ (cruzain; [4]) [%]	further results
CCn1cnc2c(Nc3cc(F)cc(F)c3)nc(C#N)nc21 [MMV676881, reference compound]	–	–	–	–	–	–	–	–	Inhibition at 5 µM (Mean ± SEM %) TbrCatL 10′ inc (TbrCatL; 5 µM, 10′ pre-incubation, initial screening): fully inhibited; Inhibition at 5 µM (Mean ± SEM %) TbrCatL 0′ (TbrCatL; 5 µM, no pre-incubation, initial screening): fully inhibited; inhibition at 5 µM (TbrCatL; read-out: Inhibition at 5 µM (Mean ± SEM %) TbrCatL 0′): 100%; inhibition at 5 µM (TbrCatL; read-out: Inhibition at 5 µM (Mean ± SEM %) TbrCatL 10′ inc): 100 ± 2%; inhibition at 5 µM (TbrCatL; read-out: TbrCatL 0’ Inhibition): 104%; inhibition at 5 µM (TbrCatL; read-out: TbrCatL 10’ Inhibition): 103%; inhibition at 5 µM (cruzain; read-out: Cruzain 0’ Inhibition, 0’ (pre-incubation time), sheet "Screening results"): 108%; inhibition at 5 µM (cruzain; read-out: Cruzain 10’ Inhibition, 10’ (pre-incubation time), sheet "Screening results"): 108%; inhibition at 5 µM (cruzain; read-out: Inhibition at 5 µM (Mean ± SEM %) Cruzain 0′, 5 µM, no pre-incubation, initial screening): 100 ± 2%; inhibition at 5 µM (cruzain; read-out: Inhibition at 5 µM (Mean ± SEM %) Cruzain 10′ inc, 5 µM, 10′ pre-incubation, initial screening): 100 ± 1%; inhibition at 5 µM (cruzain; read-out: Inhibition of cruzain or TbrCatL (either enzyme) in the initial screening, 5 µM, either cruzain or TbrCatL, with or without pre-incubation): ≥ 60%
NC(=O)c1cc(-c2ccsc2)ccc1OCCOc1ccccc1 [MMV687138]	0.2	-2.4	2.4	4	–	–	–	–	–
CCCCS(=O)(=O)Nc1ccc2cnn(C)c2c1 [MMV687145]	–	–	–	–	-3	-1.9	-4.6	-6	–
Cc1cc(C)c2cc(C(=O)NC3CCCCCCC3)[nH]c2c1 [MMV687146]	-1.1	-12	4.7	4.7	–	–	–	–	–
COc1ccc(Cn2cnc3c(-c4ccco4)nc(Cl)nc32)cc1 [MMV687170]	15	3.4	6	7	–	–	–	–	–
O=C(C1CCN(c2cc(-n3cccc3)ncn2)CC1)N1CCc2ccccc2C1 [MMV687172]	0.3	15	-2.4	-1.9	–	–	–	–	–
CCc1ccc([C@@H]2C[C@H](C(F)(F)F)n3ncc(C(=O)NCc4ccc(OC)cc4)c3N2)cc1 [MMV687180]	-4.3	-11	-9	-7	–	–	–	–	–
COc1ccc2nc(C)cc(OCC(=O)Nc3ccccc3OC)c2c1 [MMV687188]	-0.5	3	0.8	4.7	–	–	–	–	–
COc1ccc2nc(C)cc(OCC(=O)NCc3ccccc3)c2c1 [MMV687189]	2.6	5	4.5	-1.1	–	–	–	–	–
CC(C)(C(=O)Nc1ccc(F)cc1)n1cc(-c2ccccc2F)cn1 [MMV687239]	–	–	–	–	1.1	-6	7	-3	–
NC(=O)c1cc(Br)ccc1OCCOc1ccccc1 [MMV687243]	–	–	–	–	-2.4	-18	8	8	–
Nc1nc2cc(-c3cncc(Oc4ccc(F)cc4)c3)ccc2[nH]1 [MMV687248]	-0.7	17	17	19	–	–	–	–	–
Cn1c(=O)c2c(S(C)(=O)=O)snc2n(C)c1=O [MMV687251]	2.7	0.4	12	2.8	–	–	–	–	–
CCCCc1ccc(C(=O)Nc2nccc3ccccc23)nc1 [MMV687254]	-7	-2.6	-10	-5	–	–	–	–	–
CC(C)=CCC/C(C)=C\CNCCNC1C2CC3CC(C2)CC1C3 (stereo not shown) [MMV687273]	-3.2	-4.3	-1.6	2.8	–	–	–	–	–
CCc1nc2ccc(Cl)cn2c1C(=O)NCc1ccc(N2CCC(c3ccc(OC(F)(F)F)cc3)CC2)cc1 [MMV687696]	-4.5	-3.6	4.7	1.8	–	–	–	–	–
O=C(NCc1cc(Cl)cc(Cl)c1)c1c(C(F)(F)F)nc2ccccn12 [MMV687699]	-1.6	-6	3.3	7	–	–	–	–	–
Nc1ncnc2c1ncn2[C@@H]1O[C@H](COS(=O)(=O)NC(=O)c2ccccc2O)[C@@H](O)[C@H]1O [MMV687700]	3	17	3	10	–	–	–	–	–
COc1cccc(-c2nc3c(N4CCCC4)cccc3n2CC2CCCN2)n1 (stereo not shown) [MMV687703]	26	16	14	11	–	–	–	–	–
c1ccc(Oc2ccc(-c3cc(N4CCNCC4)[nH]n3)cc2)cc1 [MMV687706]	-6	23	2.4	4	–	–	–	–	–

Structure (SMILES)	TbrCatL 0’ Inhibition (TbrCatL; 0’ (pre-incubation time)) [%]	TbrCatL 10’ Inhibition (TbrCatL; 10’ (pre-incubation time)) [%]	Cruzain 0’ Inhibition (cruzain; [1]) [%]	Cruzain 10’ Inhibition (cruzain; [2]) [%]	TbrCatL Inhibition 0’ (TbrCatL; [3]) [%]	TbrCatL Inhibition 10’ (TbrCatL; [4]) [%]	Cruzain Inhibition 0’ (cruzain; [3]) [%]	Cruzain Inhibition 10’ (cruzain; [4]) [%]	further results
O=C1O[C@@H](CO)CN1c1cc(F)c(C2=CCN(Cc3ccccc3)CC2)c(F)c1 [MMV687729]	-0.7	-6.5	-2	6	–	–	–	–	–
CCCCOC(=O)Nc1cc2[nH]c(C3CCCCC3)nc2cc1N1CCCC1 [MMV687730]	19	12	12	4.4	–	–	–	–	–
Cc1cc(OCC(=O)NCc2ccccc2)c2cc(Br)ccc2n1 [MMV687747]	–	–	–	–	2	-0.3	6.4	6	–
c1ccc(C[C@@H]2CN(c3nccc(Oc4ccc(-n5ccnc5)cc4)n3)CCN2)cc1 [MMV687749]	–	–	–	–	6.4	5.6	14	13	–
c1ccc(Oc2ccc(-c3cc(C4CCOCC4)[nH]n3)cc2)cc1 [MMV687762]	–	–	–	–	17	12	9	7	–
Cc1cnc(N2CCN[C@@H](Cc3ccccc3)C2)nc1Oc1ccc(-n2ccnc2)cc1 [MMV687765]	5	8.5	4.4	13	–	–	–	–	–
CC1(C)OB(O)c2ccc(C3=NOC(c4cc(Cl)c(F)c(Cl)c4)(C(F)(F)F)C3)cc21 (stereo not shown) [MMV687775]	–	–	–	–	-0.5	-8	13	-4	–
Cc1cc(C2=NOC(c3cc(Cl)c(F)c(Cl)c3)(C(F)(F)F)C2)ccc1C(=O)NCc1ccc2c(c1)C(C)(C)OB2O (stereo not shown) [MMV687776]	–	–	–	–	-0.1	-4.5	25	17	–
CC1(C)Cc2c(c(N3CCOCC3)nc3snc(Br)c23)CO1 [MMV687794]	4.7	25	8	27	–	–	–	–	–
NCCC(O)C(=O)N[C@@H]1C[C@H](N)[C@@H](OC2O[C@H](CN)[C@@H](O)[C@H](O)[C@H]2O)[C@H](O)C1OC1O[C@H](CO)[C@@H](O)[C@H](N)[C@H]1O (stereo partly shown) [MMV687796]	–	–	–	–	–	–	–	–	TbrCatL Inhibition 0’ (TbrCatL; [5]): -9.5%; TbrCatL Inhibition 10’ (TbrCatL; [6]): -6%; Cruzain Inhibition 0’ (cruzain; [5]): -0.8%; Cruzain Inhibition 10’ (cruzain; [6]): -3.6%
C[C@H]1COc2c(N3CCN(C)CC3)c(F)cc3c(=O)c(C(=O)O)cn1c23 [MMV687798]	-4.6	-1.6	4.7	6	–	–	–	–	–
CC(C)N=c1cc2n(-c3ccc(Cl)cc3)c3ccccc3nc-2cc1Nc1ccc(Cl)cc1 [MMV687800]	–	–	–	–	1.1	3	23	10	–
CC[C@H](CO)NCCN[C@H](CC)CO [MMV687801]	–	–	–	–	7	0.4	-4.5	0.4	–
CC(=O)NC[C@@H]1CN(c2ccc(N3CCOCC3)c(F)c2)C(=O)O1 [MMV687803]	–	–	–	–	3.8	-0.1	-8	-4	–
O=C(Nc1ccc(C(F)(F)F)c(C(F)(F)F)c1)c1cc(Cl)ccc1O [MMV687807]	-4	-5	-0.3	6	–	–	–	–	–
O=C1O[C@@H](COc2ccon2)CN1c1cc(F)c(C2=CCN(Cc3ccccc3)CC2)c(F)c1 [MMV687813]	5.3	-1	2.7	23	–	–	–	–	–
Cc1cccc(-c2nc(Nc3ccncn3)c3sccc3n2)n1 [MMV688122]	–	–	–	–	19	-8	-1.4	-17	–
CCc1ccc(S(=O)(=O)Nc2cc(CN3CCN(CCC(C)C)CC3)ccc2C)cc1 [MMV688124]	-3.3	1	-1.8	3	–	–	–	–	–
CCCc1ccc(S(=O)(=O)Nc2ccc(CN3CCN(CC4CC4)CC3)cc2)cc1 [MMV688125]	-2.3	-4.7	4.4	9	–	–	–	–	–
